Data published in PubChem BioAssay AID248 (DTP/NCI, 2004).
Where “and” joins values, the source holds several entries; their conditions need not be identical. Equal values may be shown once. Toxic doses and inconclusive results are not listed. Cut-off read from the data, not from the text of the source: active = T/C of 150% or more; inactive = T/C below 125%.

System: L1210 leukemia ip in BDF1 mice, survival T/C
Experiment: NCI In Vivo Anticancer Drug Screen. Data for tumor model L1210 Leukemia (intraperitoneal) in B6D2F1 (BDF1) mice
Conditions: higher = longer survival
Method in brief: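 Tumor cells were implanted, animals were treated, and survival was followed. The result divides the treated measurement by the vehicle-control measurement.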

[1] = endpoint: mean survival time, dose: 100.0 mg/kg/injection, schedule: Q01DX009 (ip), vehicle: saline with Tween-80
[2] = endpoint: mean survival time, dose: 200.0 mg/kg/injection, schedule: Q01DX009 (ip), vehicle: saline with Tween-80
[3] = endpoint: mean survival time, dose: 12.5 mg/kg/injection, schedule: Q01DX009 (ip), vehicle: saline with Tween-80
[4] = endpoint: mean survival time, dose: 100.0 mg/kg/injection, schedule: Q01DX001 (ip), vehicle: Klucel (hydroxypropylcellulose) (HPC)
[5] = endpoint: mean survival time, dose: 200.0 mg/kg/injection, schedule: Q01DX001 (ip), vehicle: Klucel (hydroxypropylcellulose) (HPC)
[6] = endpoint: mean survival time, dose: 400.0 mg/kg/injection, schedule: Q01DX001 (ip), vehicle: Klucel (hydroxypropylcellulose) (HPC)
[7] = endpoint: mean survival time, dose: 100.0 mg/kg/injection, schedule: Q01DX009 (ip), vehicle: saline
[8] = endpoint: mean survival time, dose: 200.0 mg/kg/injection, schedule: Q01DX009 (ip), vehicle: saline
[9] = endpoint: mean survival time, dose: 100.0 mg/kg/injection, schedule: Q04DX002 (ip), vehicle: saline with Tween-80
[10] = endpoint: mean survival time, dose: 200.0 mg/kg/injection, schedule: Q04DX002 (ip), vehicle: saline with Tween-80
[11] = endpoint: mean survival time, dose: 100.0 mg/kg/injection, schedule: Q01DX001 (ip), vehicle: saline
[12] = endpoint: mean survival time, dose: 100.0 mg/kg/injection, schedule: Q01DX001 (ip), vehicle: carboxymethylcellulose (CMC)
[13] = endpoint: mean survival time, dose: 200.0 mg/kg/injection, schedule: Q01DX001 (ip), vehicle: carboxymethylcellulose (CMC)
[14] = endpoint: mean survival time, dose: 400.0 mg/kg/injection, schedule: Q01DX001 (ip), vehicle: carboxymethylcellulose (CMC)

Measured: T/C

O=C(c1ccccc1)C(O)c1ccccc1 (stereo not drawn)
inactive: [1] 89 % of control | [2] 94 % of control | endpoint: mean survival time, dose: 400.0 mg/kg/injection, schedule: Q01DX009 (ip), vehicle: saline with Tween-80 100 % of control

CC(=O)OC1(c2ccc(Cl)cc2)OC(=O)C(c2ccccc2)=C1Cc1ccccc1 (stereo not drawn)
inactive: [3] 93 % of control | endpoint: mean survival time, dose: 25.0 mg/kg/injection, schedule: Q01DX009 (ip), vehicle: saline with Tween-80 86 % of control | endpoint: mean survival time, dose: 50.0 mg/kg/injection, schedule: Q01DX009 (ip), vehicle: saline with Tween-80 86 % of control | [2] 95 % of control

Nc1cc(Cl)c([N+](=O)[O-])c(N)n1
inactive: [4] 101 % of control | [5] 106 % of control | [6] 108 % of control

CCCCCCCCCC(CCCCCCCCC)NCC(C)OC(=O)c1ccc([N+](=O)[O-])cc1 (stereo not drawn)
inactive: endpoint: mean survival time, dose: 75.0 mg/kg/injection, schedule: Q01DX001 (ip), vehicle: acetone 95 % of control | endpoint: mean survival time, dose: 150.0 mg/kg/injection, schedule: Q01DX001 (ip), vehicle: acetone 95 % of control | endpoint: mean survival time, dose: 300.0 mg/kg/injection, schedule: Q01DX001 (ip), vehicle: acetone 94 % of control

C#CC(C)(C)OCC(O)CCl (stereo not drawn)
inactive: [7] 96 % of control | endpoint: mean survival time, dose: 100.0 mg/kg/injection, schedule: Q04DX003 (ip), vehicle: saline sonified 114 % of control | [8] 89 % of control | endpoint: mean survival time, dose: 200.0 mg/kg/injection, schedule: Q04DX003 (ip), vehicle: saline sonified 109 % of control | endpoint: mean survival time, dose: 400.0 mg/kg/injection, schedule: Q04DX003 (ip), vehicle: saline sonified 109 % of control

N#CCc1ccccc1S(=O)(=O)O
inactive: [7] 105 % of control | endpoint: mean survival time, dose: 100.0 mg/kg/injection, schedule: Q04DX003 (ip), vehicle: saline 98 % of control | [8] 100 % of control | endpoint: mean survival time, dose: 200.0 mg/kg/injection, schedule: Q04DX003 (ip), vehicle: saline 102 % of control | endpoint: mean survival time, dose: 400.0 mg/kg/injection, schedule: Q01DX009 (ip), vehicle: saline 103 % of control | endpoint: mean survival time, dose: 400.0 mg/kg/injection, schedule: Q04DX003 (ip), vehicle: saline 101 % of control

O=C1CCc2ccsc21
inactive: [9] 97 % of control | [10] 97 % of control

COc1ccc(C(C)(C)CC(C)(C)C)cc1
inactive: endpoint: mean survival time, dose: 75.0 mg/kg/injection, schedule: Q01DX009 (ip), vehicle: Klucel (hydroxypropylcellulose) (HPC) 111 % of control | endpoint: mean survival time, dose: 100.0 mg/kg/injection, schedule: Q04DX002 (ip), vehicle: Klucel (hydroxypropylcellulose) (HPC) 108 % of control | endpoint: mean survival time, dose: 150.0 mg/kg/injection, schedule: Q01DX009 (ip), vehicle: Klucel (hydroxypropylcellulose) (HPC) 100 % of control | endpoint: mean survival time, dose: 200.0 mg/kg/injection, schedule: Q04DX002 (ip), vehicle: Klucel (hydroxypropylcellulose) (HPC) 118 % of control | endpoint: mean survival time, dose: 300.0 mg/kg/injection, schedule: Q01DX009 (ip), vehicle: Klucel (hydroxypropylcellulose) (HPC) 91 % of control | endpoint: mean survival time, dose: 400.0 mg/kg/injection, schedule: Q04DX002 (ip), vehicle: Klucel (hydroxypropylcellulose) (HPC) 101 % of control

CCC1C(CC(=O)O)=C(C)NC(C)=C1CC(=O)O
inactive: endpoint: mean survival time, dose: 100.0 mg/kg/injection, schedule: Q01DX009 (ip), vehicle: Klucel (hydroxypropylcellulose) (HPC) 109 % of control | endpoint: mean survival time, dose: 200.0 mg/kg/injection, schedule: Q01DX009 (ip), vehicle: Klucel (hydroxypropylcellulose) (HPC) 90 % of control

C=C(C)CC/C=C/C
inactive: endpoint: mean survival time, dose: 50.0 mg/kg/injection, schedule: Q01DX001 (ip), vehicle: saline 115 % of control | [11] 115 % of control | endpoint: mean survival time, dose: 200.0 mg/kg/injection, schedule: Q01DX001 (ip), vehicle: saline 110 % of control

O=C(O)c1cnc(Cl)nc1Nc1ccccc1I
inactive: endpoint: mean survival time, dose: 6.25 mg/kg/injection, schedule: Q01DX009 (ip), vehicle: saline with Tween-80 93 % of control | endpoint: mean survival time, dose: 12.5 mg/kg/injection, schedule: Q01DX001 (ip), vehicle: saline with Tween-80 90 % of control | [3] 88 % of control | endpoint: mean survival time, dose: 25.0 mg/kg/injection, schedule: Q01DX001 (ip), vehicle: saline with Tween-80 90 % of control

Nc1ccc2c(c1)C1(NC(=O)NC1=O)c1cc(N)ccc1-2
inactive: endpoint: mean survival time, dose: 50.0 mg/kg/injection, schedule: Q01DX001 (ip), vehicle: carboxymethylcellulose (CMC) 101 % of control | [12] 101 % of control | [13] 109 % of control | [14] 103 % of control

Nc1nc(N)c2c(n1)SCC(/C=N/O)=N2
inactive: [4] 108 % of control | [5] 95 % of control | [6] 97 % of control

CCOC1CCC2C(CCC(/C=C/c3ccc(O)c4ncccc34)N2C)C1 (stereo not drawn)
inactive: endpoint: mean survival time, dose: 21.0 mg/kg/injection, schedule: Q01DX015 (ip), vehicle: saline 113 % of control | endpoint: mean survival time, dose: 36.0 mg/kg/injection, schedule: Q01DX015 (ip), vehicle: saline 111 % of control | endpoint: mean survival time, dose: 88.8 mg/kg/injection, schedule: Q01DX001 (ip), vehicle: saline 103 % of control and 116 % of control | [11] 115 % of control | endpoint: mean survival time, dose: 100.0 mg/kg/injection, schedule: Q01DX015 (ip), vehicle: saline 93 % of control | endpoint: mean survival time, dose: 133.4 mg/kg/injection, schedule: Q01DX001 (ip), vehicle: saline 108 % of control and 116 % of control and 121 % of control | endpoint: mean survival time, dose: 300.0 mg/kg/injection, schedule: Q01DX001 (ip), vehicle: saline 116 % of control and 121 % of control

CC(Br)C(=O)NC(CC(N)=O)C(=O)O (stereo not drawn)
inactive: [1] 93 % of control | [2] 91 % of control

O=C(Nc1ccc2c(c1)Cc1cc([N+](=O)[O-])ccc1-2)C(F)(F)F
inactive: endpoint: mean survival time, dose: 100.0 mg/kg/injection, schedule: Q04DX003 (ip), vehicle: saline with Tween-80 94 % of control | endpoint: mean survival time, dose: 200.0 mg/kg/injection, schedule: Q04DX003 (ip), vehicle: saline with Tween-80 94 % of control | endpoint: mean survival time, dose: 400.0 mg/kg/injection, schedule: Q04DX003 (ip), vehicle: saline with Tween-80 94 % of control

Cc1cc(C2=NCC(C)S2)c(C(C)C)cc1O (stereo not drawn)
inactive: [9] 93 % of control | [10] 104 % of control | endpoint: mean survival time, dose: 400.0 mg/kg/injection, schedule: Q04DX002 (ip), vehicle: saline with Tween-80 104 % of control

O=C(OCn1ncc2ccc([N+](=O)[O-])cc21)c1ccc(Cl)c(Cl)c1
inactive: [12] 101 % of control | [13] 93 % of control | [14] 95 % of control

O=C(O)CNC(=O)Nc1cccc(Cl)c1
inactive: endpoint: mean survival time, dose: 50.0 mg/kg/injection, schedule: Q01DX001 (ip), vehicle: Klucel (hydroxypropylcellulose) (HPC) 100 % of control | [4] 105 % of control | [5] 108 % of control

CC(=O)OC1C(O)C(C)OC(OC2C(OC(=O)C3CCC4C(C3)OC3(CC(OC(=O)/C=C/c5ccccc5)C(C)CO3)C43CO3)OC(C)C(O)C2OC(C)=O)C1O (stereo not drawn)
inactive: endpoint: median survival time, dose: 0.5 mg/kg/injection, schedule: Q01DX009 (ip), vehicle: distilled water + Tween-80 92 % of control | endpoint: median survival time, dose: 1.0 mg/kg/injection, schedule: Q01DX009 (ip), vehicle: distilled water + Tween-80 95 % of control | endpoint: median survival time, dose: 2.0 mg/kg/injection, schedule: Q01DX009 (ip), vehicle: distilled water + Tween-80 95 % of control | endpoint: median survival time, dose: 4.0 mg/kg/injection, schedule: Q01DX009 (ip), vehicle: distilled water + Tween-80 104 % of control | endpoint: median survival time, dose: 8.0 mg/kg/injection, schedule: Q01DX009 (ip), vehicle: distilled water + Tween-80 107 % of control | endpoint: median survival time, dose: 16.0 mg/kg/injection, schedule: Q01DX009 (ip), vehicle: distilled water + Tween-80 115 % of control | endpoint: median survival time, dose: 32.0 mg/kg/injection, schedule: Q01DX009 (ip), vehicle: distilled water + Tween-80 104 % of control

CC(=O)c1cnn(-c2ccccc2)c1C
inactive: endpoint: mean survival time, dose: 100.0 mg/kg/injection, schedule: Q01DX009 (ip), vehicle: other 96 % of control | endpoint: mean survival time, dose: 100.0 mg/kg/injection, schedule: Q04DX003 (ip), vehicle: other 89 % of control | endpoint: mean survival time, dose: 200.0 mg/kg/injection, schedule: Q01DX009 (ip), vehicle: other 101 % of control | endpoint: mean survival time, dose: 200.0 mg/kg/injection, schedule: Q04DX003 (ip), vehicle: other 100 % of control | endpoint: mean survival time, dose: 400.0 mg/kg/injection, schedule: Q01DX009 (ip), vehicle: other 102 % of control | endpoint: mean survival time, dose: 400.0 mg/kg/injection, schedule: Q04DX003 (ip), vehicle: other 92 % of control

CCN(CC)c1ccc(SC#N)cc1
inactive: [11] 101 % of control
